Data on one molecule can be found in paper PMC10053118, “Laccase Production from Agrocybe pediades: Purification and Functional Characterization of a Consistent Laccase Isoenzyme in Liquid Culture” (Microorganisms, 2023).

This experiment has as its system T1, extracellular laccase (laccI) of A. pediades.
T1 construct: native, partially purified from culture filtrate (Sephacryl 200), glycosylated monomer, 72 kDa native, 55-60 kDa denatured
As to the kind of experiment: spectrophotometric oxidation at […] nm, Michaelis-Menten nonlinear fit. To be noted: pH 5.0; 0-2 mM substrate; air oxygen as co-substrate; read-out: apparent Km. Type of experiment: biochemical, Agrocybe pediades.

Consider `COc1cccc(OC)c1O` [2,6-DMP, 2,6-dimethoxyphenol], for which the Michaelis-Menten constant (Km) turned out to be 100 µM.
